The values below come from patent US20110008409A1, “PHARMACEUTICAL PREPARATION CONTAINING A GESTAGEN, AND KIT AND METHOD FOR TREATING ENDOMETRIOSIS USING THE PREPARATION” (priority 2007, published 2011).

Molecules are shown by their SMILES.

One data set has as its system ovulation. The settings on record: daily dose; as set for the purposes of the invention; cited from earlier work.
Data set [1] has as its system women with laparoscopically diagnosed endometriosis. The note with it: in vivo. The procedure:
(§1) The efficacy of each therapy was evaluated by means of, among other methods, a pain scale (visual analog scale, VAS) form filled out by the patient.

The test system is the same in data set [2]. Briefly: Clinical study in endometriosis: pain scale (visual analog scale, VAS). In kind it is in vivo. The note with it: end of 6-month treatment; for pain reduction on visual analog scale (VAS) compared to the pain experienced at the beginning of therapy: DNG 2 mg/d orally, LA 3.75 mg s.c. every 4 weeks. On the procedure: as §1
Data set [3] concerns subjects affected with endometriosis. The settings on record: 2 mg of dienogest per day for 24 weeks; cited from earlier work.
In data set [4] the test system is women with laparoscopically diagnosed endometriosis. The note with it: in vivo. The source holds these as a separate data set.
Data set [5] has the same test system. The note with it: in vivo. On the procedure:
as §1
The effect of the two therapies on bone metabolism was studied in a subgroup of patients.
This is another data set of the same source.

`CC(=O)O[C@]1(C(C)=O)CC[C@H]2[C@@H]3C=C(Cl)C4=CC(=O)CC[C@]4(C)[C@H]3CC[C@@]21C` [chiormadinone acetate, chlormadinone acetate]: the ovulation-inhibiting dose in the data set with ovulation is on record as 1.7 mg.

In the case of `C[C@]12CCC3=C4CCC(=O)C=C4CC[C@H]3[C@@H]1CC[C@@]2(O)CC#N` [DNG, 17α-cyanomethyl-17-β-hydroxyestra-4,9-dien-3-one], the “course of hot flash symptomatology during therapy” value in data set [1] is on record as “reduced”. Besides, the “statistical analysis of pain reduction versus comparator” value in data set [2] (DNG 2 mg/d orally vs LA 3.75 mg s.c. every 4 weeks) is reported as “not inferior to LA”. The “pain reduction on visual analog scale (VAS) compared to the pain experienced at the beginning of therapy” value in data set [2] is given as −47.5 mm. The “result of the treatment compared with Danazol or GnRH agonists” value in data set [3] is “comparable”. Moreover, in data set [4], the “estrogen values, average value at the end of study” value amounted to 249.9 pmol/L. The “change of bone density compared to the beginning of the study” value in data set [5] is reported as “+0.25%”.

In the case of `CC(=O)O[C@]1(C(C)=O)CC[C@H]2[C@@H]3C=C(Cl)C4=CC(=O)[C@@H]5C[C@@H]5[C@]4(C)[C@H]3CC[C@@]21C` [cyproterone acetate], the ovulation-inhibiting dose in the data set on ovulation is on record as 1 mg.

Take `CCNC(=O)[C@@H]1CCCN1C(=O)[C@H](CCCNC(=N)N)NC(=O)[C@H](CC(C)C)NC(=O)[C@@H](CC(C)C)NC(=O)[C@H](Cc1ccc(O)cc1)NC(=O)[C@H](CO)NC(=O)[C@H](Cc1c[nH]c2ccccc12)NC(=O)[C@H](Cc1c[nH]cn1)NC(=O)[C@@H]1CCC(=O)N1` [LA, leuprorelin acetate]: the “course of hot flash symptomatology during therapy” value in data set [1] is listed as “increased”. For the same molecule, the “pain reduction on visual analog scale (VAS) compared to the pain experienced at the beginning of therapy” value in data set [2] was −46.0 mm. Besides, the “estrogen values, average value at the end of study” value in data set [4] stood at 68.5 pmol/L. In data set [5], the “change of bone density compared to the beginning of the study” value is −4.0% and the “laboratory parameters for determining bone metabolism” value is on record as “increased bone resorption”.
